For this series the following is noted: fasted subjects, 100 mg CBD equivalent by mouth, 1 hour post ingestion.

SMILES strings stand for the structures.

Procedure: Fasted subjects were administered either a single cannabidiol capsule (100 mg cannabidiol) or two cannabidiol/cyclodextrin capsules (total 100 mg cannabidiol equivalent) by mouth. The capsules were taken with a standard glass of water. Capillary blood was drawn one hour after ingestion and the quantity of cannabidiol and cannabidiol metabolites in blood analysed by a certified laboratory.

For the compound `C=C(C)[C@@H]1CCC(C)=C[C@H]1c1c(O)cc(CCCCC)cc1O` [Plain CBD, cannabidiol], the “Concentration of CBD in capillary blood” value amounted to 11.52 ng/mL; the “Concentration of CBD-COOH in capillary blood” value amounted to 13.14 ng/mL; the “Concentration of CBD-OH in capillary blood” value came to 1.85 ng/mL; the “Concentration, Total (CBD and metabolites) in capillary blood” value turned out to be 26.77 ng/mL.
